Test results: ChEMBL document CHEMBL1128445, “Antiinflammatory 4,5-diarylpyrroles. 2. Activity as a function of cyclooxygenase-2 inhibition” (J Med Chem, 1995)

How the values were obtained:
[1] = molecular target: T1, Prostaglandin G/H synthase 1 (Ovis aries, UniProt P05979); assay: Tested for inhibitory activity against Prostaglandin G/H synthase 1 from ovine
T1 sequence (P05979 whole entry): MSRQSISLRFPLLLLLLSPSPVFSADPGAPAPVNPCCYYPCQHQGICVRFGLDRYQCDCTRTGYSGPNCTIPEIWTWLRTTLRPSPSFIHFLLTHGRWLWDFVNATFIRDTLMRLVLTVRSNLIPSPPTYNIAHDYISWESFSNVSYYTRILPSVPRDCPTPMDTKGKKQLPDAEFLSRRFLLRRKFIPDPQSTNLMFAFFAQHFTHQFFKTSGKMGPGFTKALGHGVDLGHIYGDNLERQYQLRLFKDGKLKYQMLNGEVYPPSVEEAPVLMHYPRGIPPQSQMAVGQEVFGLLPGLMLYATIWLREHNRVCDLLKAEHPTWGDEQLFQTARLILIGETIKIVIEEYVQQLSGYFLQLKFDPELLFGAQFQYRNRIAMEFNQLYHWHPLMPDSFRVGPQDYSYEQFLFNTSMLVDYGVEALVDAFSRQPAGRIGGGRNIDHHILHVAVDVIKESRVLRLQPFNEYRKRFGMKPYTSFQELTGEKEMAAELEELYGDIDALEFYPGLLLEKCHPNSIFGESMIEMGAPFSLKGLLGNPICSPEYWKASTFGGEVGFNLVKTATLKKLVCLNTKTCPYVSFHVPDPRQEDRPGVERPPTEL

[2] = test system: Rattus norvegicus; assay: In vivo effective dose required for antiinflammatory activity in rat adjuvant arthritis model; assay type: functional
[3] = test system: Rattus norvegicus; assay: The compound was tested for maximum blood level reached in rats at 15.9 uM/Kg after peroral administration.; assay type: ADME, organism-based; set-up: dose 15.9 uM/Kg, route oral; conditions: in vivo, po
[4] = test system: Rattus norvegicus; assay: The compound was tested for maximum blood level reached in rats at 15.9 uM/Kg after intravenous administration.; assay type: ADME, organism-based; set-up: dose 15.9 uM/Kg, route intravenous; conditions: in vivo, 15.9 µmol/kg

| Compound | IC50 [1] | Cmax ([3]; 15.9 µmol/kg) | Cmax [4] | Cmax [3] | ED50 [2] |
| --- | --- | --- | --- | --- | --- |
| Cn1c(Cl)c(Cl)c(-c2ccc(F)cc2)c1-c1ccc(S(C)(=O)=O)cc1 | 650 µM | – | – | – | 12.55 µM |
| CS(=O)(=O)c1ccc(-c2[nH]c(Br)c(Cl)c2-c2ccc(F)cc2)cc1 | – | – | – | – | 9.98 µM |
| CN1C(C(=O)Nc2ccccn2)=C(O)c2ccccc2S1(=O)=O [PIROXICAM] | – | – | – | – | 1.3 µM |
| CS(=O)(=O)c1ccc(-c2[nH]c([N+](=O)[O-])cc2-c2ccc(F)cc2)cc1 | – | – | – | – | 24.97 µM |
| Cn1c(Br)c(Br)c(-c2ccc(F)cc2)c1-c1ccc(S(C)(=O)=O)cc1 | 767 µM | – | – | – | 8.54 µM |
| CS(=O)(=O)c1ccc(-c2[nH]c(Cl)c(Cl)c2-c2ccc(F)cc2)cc1 | 20 µM | – | – | – | 3.9 µM |
| COc1ccc2c(c1)c(CC(=O)O)c(C)n2C(=O)c1ccc(Cl)cc1 [INDOMETHACIN] | – | – | – | – | 0.84 µM |
| Cn1c(Br)cc(-c2ccc(F)cc2)c1-c1ccc(S(C)(=O)=O)cc1 | 516 µM | 1.5 uM l-1 | 2.9 uM l-1 | – | 4.16 µM |
| CC(=O)n1c(Br)cc(-c2ccc(F)cc2)c1-c1ccc(S(C)(=O)=O)cc1 | – | – | – | – | 82.95 µM |
| CC(=O)Oc1ccccc1C(=O)O [ASPIRIN] | – | – | – | – | 1942.7 µM |
| Cn1ccc(-c2ccc(F)cc2)c1-c1ccc(S(C)(=O)=O)cc1 | > 300 µM | – | – | – | >303 µM |
| CS(=O)(=O)c1ccc(-c2[nH]c(I)c(I)c2-c2ccc(F)cc2)cc1 | 127 µM | – | – | – | 72.82 µM |
| CS(=O)(=O)c1ccc(-c2[nH]ccc2-c2ccc(F)cc2)cc1 | 373 µM | – | – | < 0.1 uM l-1 | >317 µM |
| CC(C)(C)OC(=O)n1c(Br)cc(-c2ccc(F)cc2)c1-c1ccc(S(C)(=O)=O)cc1 | > 300 µM | – | – | – | 32 µM |
| CS(=O)(=O)c1ccc(-c2[nH]c(Cl)c(Br)c2-c2ccc(F)cc2)cc1 | 44 µM | – | – | – | 7.93 µM |
| CCCCC1C(=O)N(c2ccccc2)N(c2ccccc2)C1=O [PHENYLBUTAZONE] | 384 µM | – | – | – | 32.4 µM |
| CC(C)Cc1ccc(C(C)C(=O)O)cc1 (stereo not given) [IBUPROFEN] | – | – | – | – | 484.8 µM |

The next lines start with results.

| IC50 [1] | Cmax ([3]; 15.9 µmol/kg) | Cmax [4] | Cmax [3] | Compound | ED50 [2] |
| --- | --- | --- | --- | --- | --- |
| > 300 µM | – | – | – | CS(=O)(=O)c1ccc(-c2[nH]c(S(C)(=O)=O)cc2-c2ccc(F)cc2)cc1 | 93.02 µM |
| 219 µM | – | – | – | CS(=O)(=O)c1ccc(-c2[nH]c(SC#N)cc2-c2ccc(F)cc2)cc1 | 10.47 µM |
| – | 2.9 uM l-1 | 4.1 uM l-1 | – | CS(=O)(=O)c1ccc(-c2[nH]c(C#N)cc2-c2ccc(F)cc2)cc1 | 3.82 µM |
| 36 µM | – | – | – | CSc1cc(-c2ccc(F)cc2)c(-c2ccc(S(C)(=O)=O)cc2)[nH]1 | 4.89 µM |
| > 300 µM | – | – | – | CS(=O)(=O)c1ccc(-c2[nH]c(I)cc2-c2ccc(F)cc2)cc1 | 49.86 µM |
| 132 µM | 3 uM l-1 | 2 uM l-1 | – | CS(=O)(=O)c1ccc(-c2[nH]c(Br)cc2-c2ccc(F)cc2)cc1 | 2.66 µM |
| 580 µM | – | – | – | CS(=O)(=O)c1ccc(-c2[nH]c(C(=O)C(F)(F)F)cc2-c2ccc(F)cc2)cc1 | 47.16 µM |
| 94 µM | 2.3 uM l-1 | 1.4 uM l-1 | – | CS(=O)(=O)c1ccc(-c2[nH]c(Cl)cc2-c2ccc(F)cc2)cc1 | – |
